ChEMBL document CHEMBL1201862, “PubChem BioAssay data set” (2004)
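The compound was tested at five concentrations on cells cultured in 96-well plates, with a 48-hour exposure period. At the GI50, growth is halved.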 Active and inactive are the calls of the source. No stated cut-off is given here; in the data, active = GI50 up to about 1.1 µM and inactive = higher.

Assays:
Experiment in all cases: inhibition of tumour cell growth, NCI panel, 48 h
NCI-H23 = test system: NCI-H23
ACHN = test system: ACHN
CCRF-CEM = test system: CCRF-CEM
HT-29 = test system: HT-29
SN12C = test system: SN12C
MOLT-4 = test system: MOLT-4
MDA-MB-231 = test system: MDA-MB-231
MCF7 = test system: MCF7
A498 = test system: A498
U-251 = test system: U-251
Malme-3M = test system: Malme-3M
HOP-92 = test system: HOP-92
OVCAR-5 = test system: OVCAR-5
OVCAR-8 = test system: OVCAR-8
Hs-578T = test system: Hs-578T
SK-MEL-5 = test system: SK-MEL-5
EKVX = test system: EKVX
SF-268 = test system: SF-268
SNB-19 = test system: SNB-19
KM12 = test system: KM12
SW-620 = test system: SW-620
SF-539 = test system: SF-539
SK-MEL-2 = test system: SK-MEL-2
A549 = test system: A549
K562 = test system: K562
M14 = test system: M14
IGROV-1 = test system: IGROV-1
LOX IMVI = test system: LOX IMVI
786-0 = test system: 786-0
NCI-H460 = test system: NCI-H460
RPMI-8226 = test system: RPMI-8226
DU-145 = test system: DU-145
NCI/ADR-RES = test system: NCI/ADR-RES
SR = test system: SR
TK-10 = test system: TK-10
MDA-N = test system: MDA-N
HOP-62 = test system: HOP-62
COLO 205 = test system: COLO 205
UACC-257 = test system: UACC-257
SK-OV-3 = test system: SK-OV-3
T47D = test system: T47D
PC-3 = test system: PC-3
SNB-75 = test system: SNB-75
OVCAR-4 = test system: OVCAR-4
HCT-15 = test system: HCT-15
CAKI-1 = test system: CAKI-1
SK-MEL-28 = test system: SK-MEL-28
HCT-116 = test system: HCT-116
HL-60 = test system: HL-60
UO-31 = test system: UO-31
SF-295 = test system: SF-295
OVCAR-3 = test system: OVCAR-3
NCI-H522 = test system: NCI-H522
MDA-MB-435 = test system: MDA-MB-435
HCC 2998 = test system: HCC 2998

Nc1ccn([C@@H]2CS[C@H](CO)O2)c(=O)n1 [LAMIVUDINE]
GI50 (NCI-H23): > 100 µM (inactive)

CC1CN=C(N(C(=O)Nc2ccc(F)c(Cl)c2)c2ccccc2)S1 (centres undefined)
GI50 (ACHN): 25.5 µM (inactive)
GI50 (CCRF-CEM): 31.3 µM (inactive)
GI50 (HT-29): 22.9 µM (inactive)
GI50 (SN12C): 17.2 µM (inactive)
GI50 (MOLT-4): 16.7 µM (inactive)
GI50 (MDA-MB-231): 17.7 µM (inactive)
GI50 (MCF7): 10.4 µM (inactive)
GI50 (A498): 21.1 µM (inactive)
GI50 (U-251): 20.6 µM (inactive)
GI50 (Malme-3M): 30.3 µM (inactive)
GI50 (HOP-92): 20.3 µM (inactive)
GI50 (NCI-H23): 19.2 µM (inactive)
GI50 (OVCAR-5): 28.2 µM (inactive)
GI50 (OVCAR-8): 23.9 µM (inactive)
GI50 (Hs-578T): 38.5 µM (inactive)
GI50 (SK-MEL-5): 16.4 µM (inactive)
GI50 (EKVX): 22 µM (inactive)
GI50 (SF-268): 27.5 µM (inactive)
GI50 (SNB-19): 43.2 µM (inactive)
GI50 (KM12): 26.5 µM (inactive)
GI50 (SW-620): 27.5 µM (inactive)
GI50 (SF-539): 41.1 µM (inactive)
GI50 (SK-MEL-2): 17.5 µM (inactive)
GI50 (A549): 24.2 µM (inactive)
GI50 (K562): 27 µM (inactive)
GI50 (M14): 28.4 µM (inactive)
GI50 (IGROV-1): 27.8 µM (inactive)
GI50 (LOX IMVI): 17.5 µM (inactive)
GI50 (786-0): 22.9 µM (inactive)
GI50 (NCI-H460): 25.4 µM (inactive)
GI50 (RPMI-8226): 25.8 µM (inactive)
GI50 (DU-145): 36.8 µM (inactive)
GI50 (NCI/ADR-RES): 17.9 µM (inactive)
GI50 (SR): > 10 µM (inactive)
GI50 (TK-10): 25.9 µM (inactive)
GI50 (MDA-N): 18.9 µM (inactive)
GI50 (HOP-62): 27.6 µM (inactive)
GI50 (COLO 205): 19.3 µM (inactive)
GI50 (UACC-257): 24.6 µM (inactive)
GI50 (SK-OV-3): 33.6 µM (inactive)
GI50 (T47D): 16.8 µM (inactive)
GI50 (PC-3): 24.1 µM (inactive)
GI50 (SNB-75): 23.2 µM (inactive)
GI50 (OVCAR-4): 48.3 µM (inactive)
GI50 (HCT-15): 22.4 µM
GI50 (CAKI-1): 21 µM (inactive)
GI50 (SK-MEL-28): 15.1 µM (inactive)
GI50 (HCT-116): 21.5 µM (inactive)
GI50 (HL-60): > 10 µM (inactive)
GI50 (UO-31): 25.8 µM (inactive)
GI50 (SF-295): 31.3 µM (inactive)
GI50 (OVCAR-3): 34.5 µM (inactive)

O=C1CN(c2cccc(C(F)(F)F)c2)C(=O)CN1CCN1CC(=O)N(c2cccc(C(F)(F)F)c2)CC1=O
GI50 (ACHN): > 100 µM (inactive)
GI50 (CCRF-CEM): > 100 µM (inactive)
GI50 (HT-29): > 100 µM (inactive)
GI50 (SN12C): > 100 µM (inactive)
GI50 (MOLT-4): > 100 µM (inactive)
GI50 (MDA-MB-231): > 100 µM (inactive)
GI50 (MCF7): > 100 µM (inactive)
GI50 (U-251): > 100 µM (inactive)
GI50 (OVCAR-5): > 100 µM (inactive)
GI50 (OVCAR-8): > 100 µM (inactive)
GI50 (Hs-578T): > 100 µM (inactive)
GI50 (SK-MEL-5): > 100 µM (inactive)
GI50 (EKVX): > 100 µM (inactive)
GI50 (SF-268): > 100 µM (inactive)
GI50 (SNB-19): > 100 µM (inactive)
GI50 (NCI-H522): > 100 µM (inactive)
GI50 (KM12): > 100 µM (inactive)
GI50 (SW-620): > 100 µM (inactive)
GI50 (SF-539): > 100 µM (inactive)
GI50 (A549): > 100 µM (inactive)
GI50 (K562): > 100 µM (inactive)
GI50 (M14): > 100 µM (inactive)
GI50 (IGROV-1): > 100 µM (inactive)
GI50 (786-0): > 100 µM (inactive)
GI50 (NCI-H460): > 100 µM (inactive)
GI50 (RPMI-8226): > 100 µM (inactive)
GI50 (NCI/ADR-RES): > 100 µM (inactive)
GI50 (SR): > 100 µM (inactive)
GI50 (TK-10): > 100 µM (inactive)
GI50 (MDA-N): > 100 µM (inactive)
GI50 (MDA-MB-435): > 100 µM (inactive)
GI50 (HCC 2998): > 100 µM (inactive)
GI50 (HOP-62): > 100 µM (inactive)
GI50 (COLO 205): > 100 µM (inactive)
GI50 (UACC-257): > 100 µM (inactive)
GI50 (SK-OV-3): > 100 µM (inactive)
GI50 (T47D): > 100 µM (inactive)
GI50 (PC-3): > 100 µM (inactive)
GI50 (SNB-75): > 100 µM (inactive)
GI50 (OVCAR-4): > 100 µM (inactive)
GI50 (HCT-15): > 100 µM
GI50 (SK-MEL-28): > 100 µM (inactive)
GI50 (HCT-116): > 100 µM (inactive)
GI50 (HL-60): > 100 µM (inactive)
GI50 (UO-31): > 100 µM (inactive)
GI50 (SF-295): > 100 µM (inactive)
